Holding throughout (test): Antibacterial activity, ATP assay (BacTiter-Glo)
What all share (format): cell-based

The test system of test [1] is Klebsiella pneumoniae JCM 1662. Conditions: ATP assay concentration: peptides 10, TOB 4.0, CPFX 1.0, OX 0.5, MEPM 8.0 μg/ml. How it is done: (§1) That is, using BacTiter-Glo Microbial Cell Viability Assay kit available from PROMEGA, the antibacterial activity of the peptides was evaluated from the viability of bacteria. […] With respect to the strains, Staphylococcus aureus ATCC29213 (S. aureus ATCC29213) as Gram-positive bacteria, or, alternatively, Pseudomonas aeruginosa (P. aeruginosa ATCC27853) as Gram-negative bacteria, was used. The bacteria were cultured in media for 3 to 4 hours, and thereafter absorbances at A600 were measured. Bacterial suspensions were diluted with Mueller-Hinton broth (MHB) according to McFarland #0.5. Each strain was added so as to attain about 0.5−1×10^5 CFU/mL (final concentration) in terms of Escherichia coli. […] A solution to which the peptides were not added was considered as a negative control, and a solution to which tobramycin (TOB) was added was considered as a positive control. […] Relative values were calculated by comparison with the negative control, and these values were regarded as the viability. […] ATP (%) of the antibacterial activity was measured in the same manner as mentioned above, and the “minimum inhibitory concentration (MIC)” was measured as follows. MIC is the lowest concentration of an agent that may inhibit the growth of a bacterium. MIC is used as a parameter for the efficacy of an antibacterial agent, for the strength of bacterial sensitivity, or the like. The bacteria can grow (proliferate) when the concentration is not higher than MIC, and cannot grow when the concentration is higher than MIC. Its measurement is carried out according to a method defined as a standard method by Japanese Society of Chemotherapy or CLINICAL AND LABORATORY […] (CLSI), but, in this Example, its measurement was carried out by a broth microdilution method in accordance with “M100-S17/M7-A7” (Performance Standards for Antimicrobial Susceptibility Testing; Seventeenth Informational Supplement, Vol. 27 No. 1) published by CLSI on January, 2007. That is, sensitivity test of agents was carried out using a microtiter plate or test tubes. With respect to each strain, Escherichia coli: ATCC 25922 (Escherichia coli ATCC 25922), Pseudomonas aeruginosa: ATCC 27853 (Pseudomonas aeruginosa ATCC 27853), Staphylococcus aureus: ATCC29213 (Staphylococcus aureus ATCC29213), Klebsiella pneumoniae: JCM 1662 (Klebsiella pneumoniae JCM 1662), enterobacteria (1): JCM 1232 (Enterobacter cloacae JCM 1232), enterobacteria (2): JCM 1235 (Enterobacter aerogenes JCM 1235), and Staphylococcus epidermidis: JCM 2414 (Staphylococcus epidermidis JCM 2414), were used. […] As the concentrations of the agents in ATP assay, the concentrations as described in the Tables were used.

Test [2] relates to Enterobacteria (2): Enterobacter aerogenes JCM 1235. The conditions noted are these: ATP assay concentration: peptides 10, TOB 4.0, CPFX 1.0, OX 4.0, MEPM 8.0 μg/ml. How it is done:
as §1

Test [3] deals with Escherichia coli ATCC 25922. Conditions: ATP assay concentration: peptides 10, TOB 1.0, CPFX 0.015, OX 0.5, MEPM 0.1 μg/ml. How it is done:
as §1

For test [4], the system named is Staphylococcus epidermidis JCM 2414. The conditions noted are these: ATP assay concentration: peptides 10, TOB 1.0, CPFX 0.5, OX 0.5, MEPM 0.125 μg/ml. How it is done: as §1
The subject of test [5] is Enterobacteria (1): Enterobacter cloacae JCM 1232. Conditions: ATP assay concentration: peptides 10, TOB 4.0, CPFX 1.0, OX 4.0, MEPM 8.0 μg/ml. How it is done: That is, using BacTiter-Glo Microbial Cell Viability Assay kit available from PROMEGA, the antibacterial activity of the peptides was evaluated from the viability of bacteria. […] With respect to the strains, Staphylococcus aureus ATCC29213 (S. aureus ATCC29213) as Gram-positive bacteria, or, alternatively, Pseudomonas aeruginosa (P. aeruginosa ATCC27853) as Gram-negative bacteria, was used. The bacteria were cultured in media for 3 to 4 hours, and thereafter absorbances at A600 were measured. Bacterial suspensions were diluted with Mueller-Hinton broth (MHB) according to McFarland #0.5. Each strain was added so as to attain about 0.5−1×10^5 CFU/mL (final concentration) in terms of Escherichia coli. […] A solution to which the peptides were not added was considered as a negative control, and a solution to which tobramycin (TOB) was added was considered as a positive control. […] Relative values were calculated by comparison with the negative control, and these values were regarded as the viability. […] ATP (%) of the antibacterial activity was measured in the same manner as mentioned above, and the “minimum inhibitory concentration (MIC)” was measured as follows. MIC is the lowest concentration of an agent that may inhibit the growth of a bacterium. MIC is used as a parameter for the efficacy of an antibacterial agent, for the strength of bacterial sensitivity, or the like. The bacteria can grow (proliferate) when the concentration is not higher than MIC, and cannot grow when the concentration is higher than MIC. […] (CLSI), but, in this Example, its measurement was carried out by a broth microdilution method in accordance with “M100-S17/M7-A7” (Performance Standards for Antimicrobial Susceptibility Testing; Seventeenth Informational Supplement, Vol. 27 No. 1) published by CLSI on January, 2007. That is, sensitivity test of agents was carried out using a microtiter plate or test tubes. With respect to each strain, Escherichia coli: ATCC 25922 (Escherichia coli ATCC 25922), Pseudomonas aeruginosa: ATCC 27853 (Pseudomonas aeruginosa ATCC 27853), Staphylococcus aureus: ATCC29213 (Staphylococcus aureus ATCC29213), Klebsiella pneumoniae: JCM 1662 (Klebsiella pneumoniae JCM 1662), enterobacteria (1): JCM 1232 (Enterobacter cloacae JCM 1232), enterobacteria (2): JCM 1235 (Enterobacter aerogenes JCM 1235), and Staphylococcus epidermidis: JCM 2414 (Staphylococcus epidermidis JCM 2414), were used. […] As the concentrations of the agents in ATP assay, the concentrations as described in the Tables were used.

Molecules are shown by their SMILES. Peptide text beside a SMILES is read from it.

As to `C[C@@H](O)[C@H]1C(=O)N2C(C(=O)O)=C(S[C@@H]3CN[C@H](C(=O)N(C)C)C3)[C@H](C)[C@H]12` [MEPM, meropenem, reference compound], in test [1], the “ATP (%) mean, Klebsiella pneumoniae” value is reported as 11.9%. Further, in test [2], the “ATP (%) mean, Enterobacteria (2)” value was found to be 2.3%. Moreover, the “ATP (%) mean, Escherichia coli” value in test [3] is reported as 15.7%. In addition, in test [4], the “ATP (%) mean, Staphylococcus epidermidis” value is on record as 28.2%. Moreover, the “ATP (%) mean, Enterobacteria (1)” value in test [5] came to 5.6%.

In the case of `Cc1onc(-c2ccccc2)c1C(=O)N[C@@H]1C(=O)N2[C@@H]1SC(C)(C)[C@@H]2C(=O)O` [OX, oxacillin, reference compound], the “ATP (%) mean, Klebsiella pneumoniae” value in test [1] is listed as 142.2%. For the same compound, in test [2], the “ATP (%) mean, Enterobacteria (2)” value was found to be 86.9%. In addition, the “ATP (%) mean, Escherichia coli” value in test [3] was found to be 114.4%. Besides, in test [4], the “ATP (%) mean, Staphylococcus epidermidis” value worked out at 101.4%. The “ATP (%) mean, Enterobacteria (1)” value in test [5] was determined as 97.7%.

In the case of `CC[C@H](C)[C@H](NC(=O)[C@H](CC(C)C)NC(=O)[C@H](CCCCN)NC(=O)[C@H](CC(C)C)NC(=O)[C@@H](N)CCSC)C(=O)N[C@@H](Cc1ccccc1)C(=O)N[C@@H](CC(C)C)C(=O)N[C@@H](Cc1c[nH]cn1)C(=O)N[C@@H](CCCNC(=N)N)C(=O)N[C@@H](CC(C)C)C(=O)N[C@@H](CCCCN)C(=O)N[C@@H](CCCNC(=N)N)C(=O)N[C@@H](CCSC)C(=O)N[C@@H](CCCNC(=N)N)C(=O)N[C@@H](CCCCN)C(=O)N[C@@H](CCCNC(=N)N)C(=O)N[C@@H](CC(C)C)C(=O)N[C@@H](CCCCN)C(=O)N[C@@H](CCCNC(=N)N)C(=O)N[C@@H](CCCCN)C(=O)O` [SR-1] (H-MLKLIFLHRLKRMRKRLKRK-OH; N-terminus assumed), the “ATP (%) mean, Klebsiella pneumoniae” value in test [1] is on record as 22.1%. Also, in test [2], the “ATP (%) mean, Enterobacteria (2)” value stood at 39.4%. Moreover, in test [3], the “ATP (%) mean, Escherichia coli” value is given as 18.4%. For the same compound, in test [4], the “ATP (%) mean, Staphylococcus epidermidis” value is reported as 5.2%. In addition, in test [5], the “ATP (%) mean, Enterobacteria (1)” value is given as 4.9%.

With `CC(C)C[C@H](NC(=O)[C@H](CCCCN)NC(=O)[C@H](CCCNC(=N)N)NC(=O)[C@H](CCCCN)NC(=O)[C@H](CC(C)C)NC(=O)[C@H](CCCNC(=N)N)NC(=O)[C@H](CCCCN)NC(=O)[C@H](CCCNC(=N)N)NC(=O)[C@H](CC(C)C)NC(=O)[C@H](CCCNC(=N)N)NC(=O)[C@H](CCCNC(=N)N)NC(=O)[C@H](CCCCN)NC(=O)[C@H](CC(C)C)NC(=O)[C@H](CCCNC(=N)N)NC(=O)[C@H](Cc1c[nH]cn1)NC(=O)[C@H](CC(C)C)NC(=O)[C@H](Cc1ccccc1)NC(=O)[C@H](CCCNC(=N)N)NC(=O)[C@H](CC(C)C)NC(=O)[C@@H](N)CCC(=O)O)C(=O)N[C@@H](CCCNC(=N)N)C(N)=O` [SR-2] (H-ELRFLHRLKRRLRKRLKRKLR-NH2; N-terminus assumed), the “ATP (%) mean, Klebsiella pneumoniae” value in test [1] amounted to 9.1%. For the same compound, the “ATP (%) mean, Enterobacteria (2)” value in test [2] is listed as 15.3%. Besides, the “ATP (%) mean, Escherichia coli” value in test [3] is on record as 6.2%. For the same compound, in test [4], the “ATP (%) mean, Staphylococcus epidermidis” value is listed as 2.6%. In addition, in test [5], the “ATP (%) mean, Enterobacteria (1)” value turned out to be 3.0%.

As to `CSCC[C@H](NC(=O)[C@H](CCCNC(=N)N)NC(=O)[C@H](CCCCN)NC(=O)[C@H](CC(C)C)NC(=O)[C@H](CCCNC(=N)N)NC(=O)[C@H](Cc1c[nH]cn1)NC(=O)[C@H](CC(C)C)NC(=O)[C@H](Cc1ccccc1)NC(=O)[C@H](CCCNC(=N)N)NC(=O)[C@H](CC(C)C)NC(=O)[C@@H](N)CCC(=O)O)C(=O)N[C@@H](CCCNC(=N)N)C(=O)N[C@@H](CCCCN)C(=O)N[C@@H](CCCNC(=N)N)C(=O)N[C@@H](CC(C)C)C(=O)N[C@@H](CCCCN)C(=O)N[C@@H](CCCNC(=N)N)C(=O)N[C@@H](CCCCN)C(=O)N[C@@H](CC(C)C)C(=O)N[C@@H](CCCNC(=N)N)C(N)=O` [SR-3] (H-ELRFLHRLKRMRKRLKRKLR-NH2; N-terminus assumed), the “ATP (%) mean, Klebsiella pneumoniae” value in test [1] is listed as 20.3%. Moreover, the “ATP (%) mean, Enterobacteria (2)” value in test [2] stood at 23.5%. Also, in test [3], the “ATP (%) mean, Escherichia coli” value is 16.5%. For the same compound, the “ATP (%) mean, Staphylococcus epidermidis” value in test [4] is reported as 4.1%. Also, the “ATP (%) mean, Enterobacteria (1)” value in test [5] came to 4.3%.

On to `CC[C@H](C)[C@H](NC(=O)[C@H](CC(C)C)NC(=O)[C@@H](N)CCCCN)C(=O)N[C@@H](Cc1ccccc1)C(=O)N[C@@H](CC(C)C)C(=O)N[C@@H](Cc1c[nH]cn1)C(=O)N[C@@H](CCCNC(=N)N)C(=O)N[C@@H](CC(C)C)C(=O)N[C@@H](CCCCN)C(=O)N[C@@H](CCCNC(=N)N)C(=O)N[C@@H](CCSC)C(=O)N[C@@H](CCCNC(=N)N)C(=O)N[C@@H](CCCCN)C(=O)N[C@@H](CCCNC(=N)N)C(=O)N[C@@H](CC(C)C)C(=O)N[C@@H](CCCCN)C(=O)N[C@@H](CCCNC(=N)N)C(=O)N[C@@H](CCCCN)C(=O)N[C@@H](CC(C)C)C(=O)N[C@@H](CCCNC(=N)N)C(N)=O` [SR-4] (H-KLIFLHRLKRMRKRLKRKLR-NH2; N-terminus assumed), for which the “ATP (%) mean, Klebsiella pneumoniae” value in test [1] worked out at 15.0%. The “ATP (%) mean, Enterobacteria (2)” value in test [2] is 20.9%. In addition, the “ATP (%) mean, Escherichia coli” value in test [3] is 13.0%. Moreover, the “ATP (%) mean, Staphylococcus epidermidis” value in test [4] was 5.5%. Further, in test [5], the “ATP (%) mean, Enterobacteria (1)” value turned out to be 4.9%.

For the compound `CSCC[C@H](NC(=O)[C@H](CCCNC(=N)N)NC(=O)[C@@H](N)CCCCN)C(=O)N[C@@H](CCCNC(=N)N)C(=O)N[C@@H](CCCCN)C(=O)N[C@@H](CCCNC(=N)N)C(=O)N[C@@H](CC(C)C)C(=O)N[C@@H](CCCCN)C(=O)N[C@@H](CCCNC(=N)N)C(=O)N[C@@H](CCCCN)C(=O)N[C@@H](CC(C)C)C(=O)N[C@@H](CCCNC(=N)N)C(=O)N[C@@H](CC(C)C)C(=O)N[C@@H](Cc1c[nH]c2ccccc12)C(=O)N[C@@H](Cc1c[nH]cn1)C(=O)N[C@@H](CCCNC(=N)N)C(=O)N[C@@H](CCCCN)C(=O)N[C@@H](CCCNC(=N)N)C(=O)N[C@@H](Cc1ccc(O)cc1)C(=O)N[C@@H](CCCCN)C(=O)O` [SR-5] (H-KRMRKRLKRKLRLWHRKRYK-OH; N-terminus assumed), in test [1], the “ATP (%) mean, Klebsiella pneumoniae” value is recorded as 30.0%. In addition, in test [2], the “ATP (%) mean, Enterobacteria (2)” value came out at 41.5%. For the same compound, the “ATP (%) mean, Escherichia coli” value in test [3] is reported as 27.0%. Further, the “ATP (%) mean, Staphylococcus epidermidis” value in test [4] came out at 3.6%. The “ATP (%) mean, Enterobacteria (1)” value in test [5] is 3.4%.
